In EP1247803A2, “Indolinone compounds suitable for modulation of protein kinases” (Sugen, Inc., priority 1996, dated 1998):

Biological target: T1, EGFR (Homo sapiens, UniProt P00533)
T1 construct: Add 7 ug A431 cell lysate per well (EGFR source); endogenous in cells; host or cells: A431
Assay: EGFR ELISA assay (in vitro kinase activity, EGFR captured from A431 cell lysate)
Assay type: biochemical
Set-up: concentration or dose not given beside the values
In short: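 EGFR from A431 lysate was captured on anti-EGFR antibody-coated plates and preincubated with compounds for 30 min. Autophosphorylation ran 5 min with 3 uM ATP and 5 mM MnCl2 (final), stopped with 20 mM EDTA. Phosphotyrosine was detected by anti-pTyr ELISA with ABTS/H2O2, read at 410 nm.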

T1 sequence (P00533 25-1210): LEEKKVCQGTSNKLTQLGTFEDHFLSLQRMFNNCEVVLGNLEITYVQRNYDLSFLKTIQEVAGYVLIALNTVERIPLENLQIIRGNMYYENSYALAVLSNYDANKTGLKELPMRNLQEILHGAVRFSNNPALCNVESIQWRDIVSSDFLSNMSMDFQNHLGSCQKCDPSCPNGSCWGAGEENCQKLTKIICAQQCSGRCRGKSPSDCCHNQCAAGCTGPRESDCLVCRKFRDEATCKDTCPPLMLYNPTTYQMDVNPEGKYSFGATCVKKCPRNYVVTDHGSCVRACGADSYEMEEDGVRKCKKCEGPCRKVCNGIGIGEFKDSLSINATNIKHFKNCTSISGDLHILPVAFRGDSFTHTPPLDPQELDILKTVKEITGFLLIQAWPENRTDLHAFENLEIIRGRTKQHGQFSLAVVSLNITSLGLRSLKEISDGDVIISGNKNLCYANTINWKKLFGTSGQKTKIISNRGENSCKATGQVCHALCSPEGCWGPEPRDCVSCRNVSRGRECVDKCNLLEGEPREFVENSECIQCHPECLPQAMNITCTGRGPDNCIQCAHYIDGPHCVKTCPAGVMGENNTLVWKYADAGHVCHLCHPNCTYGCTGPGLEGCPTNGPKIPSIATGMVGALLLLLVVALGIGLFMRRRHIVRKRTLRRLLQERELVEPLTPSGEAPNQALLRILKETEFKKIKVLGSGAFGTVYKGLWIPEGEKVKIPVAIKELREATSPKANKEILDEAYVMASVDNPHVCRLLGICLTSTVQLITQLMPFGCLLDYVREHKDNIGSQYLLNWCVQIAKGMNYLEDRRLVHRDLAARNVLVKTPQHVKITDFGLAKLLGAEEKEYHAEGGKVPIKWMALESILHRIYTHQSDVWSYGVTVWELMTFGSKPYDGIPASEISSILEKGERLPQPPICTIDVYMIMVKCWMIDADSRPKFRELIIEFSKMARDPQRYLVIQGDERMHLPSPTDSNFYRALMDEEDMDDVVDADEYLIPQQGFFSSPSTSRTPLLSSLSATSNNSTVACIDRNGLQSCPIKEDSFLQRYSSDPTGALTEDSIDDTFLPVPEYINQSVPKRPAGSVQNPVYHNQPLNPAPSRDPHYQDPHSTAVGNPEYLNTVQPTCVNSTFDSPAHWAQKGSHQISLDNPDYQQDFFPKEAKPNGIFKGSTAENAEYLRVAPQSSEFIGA

Cc1c(Br)ccc2c1C(=Cc1cc(C(C)(C)C)c(OCc3ccccc3)c(C(C)(C)C)c1)C(=O)N2 [10733/C05]
Biochem EGFR %Inhibition: 17.2%

Cc1cc(C=C2C(=O)Nc3ccc(Br)c(C)c32)cc(C)c1OCc1ccccc1 [10733/C07]
Biochem EGFR %Inhibition: 16.7%

COc1c(C(C)(C)C)cc(C=C2C(=O)Nc3c(Br)cc(Br)cc32)cc1C(C)(C)C [10733/A04]
Biochem EGFR %Inhibition: 32.8%

COc1c(O)ccc(C=C2C(=O)Nc3ccc(I)cc32)c1[N+](=O)[O-] [10733/B11]
Biochem EGFR %Inhibition: 12.5%

COc1c(C(C)(C)C)cc(C=C2C(=O)Nc3ccc(I)cc32)cc1C(C)(C)C [10733/B04]
Biochem EGFR %Inhibition: 28.5%

CNS(=O)(=O)c1ccc2c(c1)C(=Cc1cc(Br)cc(OC)c1O)C(=O)N2 [10733/D08]
Biochem EGFR %Inhibition: 38.3%

CC(C)(C)c1cc(C=C2C(=O)Nc3ccc(I)cc32)cc(C(C)(C)C)c1OCc1ccccc1 [10733/B05]
Biochem EGFR %Inhibition: 26.7%

CC(C)c1cc(C=C2C(=O)Nc3ccc(S(=O)(=O)N4CCOCC4)cc32)cc(C(C)C)c1Oc1ccccc1 [10732/F04]
Biochem EGFR %Inhibition: -0.1%

COc1c(Br)cc(C=C2C(=O)Nc3ccc(S(=O)(=O)Nc4ccc(C(F)(F)F)cc4)cc32)cc1C(C)(C)C [10732/E07]
Biochem EGFR %Inhibition: -8.5%

COc1c(O)ccc(C=C2C(=O)Nc3ccc(Br)c(C)c32)c1[N+](=O)[O-] [10733/C11]
Biochem EGFR %Inhibition: 15.8%

CC(C)(C)c1cc(C=C2C(=O)Nc3ccc(S(=O)(=O)N4CCOCC4)cc32)ccc1OCc1ccccc1 [10732/F06]
Biochem EGFR %Inhibition: -8.0%

CNS(=O)(=O)c1ccc2c(c1)C(=Cc1cc([N+](=O)[O-])c(OC)c(C(C)(C)C)c1)C(=O)N2 [10733/D03]
Biochem EGFR %Inhibition: 11.2%

CC(C)(C)c1cc(C=C2C(=O)Nc3ccc(S(=O)(=O)Nc4ccc(C(F)(F)F)cc4)cc32)cc(I)c1OCc1ccccc1 [10733/E02]
Biochem EGFR %Inhibition: -1.3%

COc1cc(Br)cc(C=C2C(=O)Nc3ccc(Br)c(C)c32)c1O [10733/C08]
Biochem EGFR %Inhibition: 65.8%

COc1c([N+](=O)[O-])cc(C=C2C(=O)Nc3ccc(I)cc32)cc1C(C)(C)C [10733/B03]
Biochem EGFR %Inhibition: 14.4%

COc1c(C)cc(C=C2C(=O)Nc3c(Br)cc(Br)cc32)cc1C [10733/A06]
Biochem EGFR %Inhibition: 45.1%

COc1c(I)cc(C=C2C(=O)Nc3ccc(CCCl)cc32)cc1C(C)(C)C [10732/G11]
Biochem EGFR %Inhibition: -33.7%

COc1ccc(C=C2C(=O)Nc3ccc(S(=O)(=O)N4CCOCC4)cc32)cc1C(C)(C)C [10732/F05]
Biochem EGFR %Inhibition: -30.7%

COc1c(C)cc(C=C2C(=O)Nc3ccc(Br)c(C)c32)cc1C [10733/C06]
Biochem EGFR %Inhibition: 22.7%

CNS(=O)(=O)c1ccc2c(c1)C(=Cc1cc([N+](=O)[O-])ccc1O)C(=O)N2 [10733/D10]
Biochem EGFR %Inhibition: 46.8%

CNS(=O)(=O)c1ccc2c(c1)C(=Cc1ccc(Cl)c([N+](=O)[O-])c1)C(=O)N2 [10718/D08]
Biochem EGFR %Inhibition: 3.0%

CNS(=O)(=O)c1ccc2c(c1)C(=Cc1ccc(O)c(C)c1O)C(=O)N2 [10718/D09]
Biochem EGFR %Inhibition: 6.0%

CC(C)(C)c1cc(C=C2C(=O)Nc3ccc(S(=O)(=O)Nc4ccc(C(F)(F)F)cc4)cc32)cc(Cl)c1OCc1ccccc1 [10732/E10]
Biochem EGFR %Inhibition: -3.3%

COc1cccc(O)c1C=C1C(=O)Nc2c(Br)cc(Br)cc21 [10717/A10]
Biochem EGFR %Inhibition: 8.1%

CC(C)(C)c1cc(C=C2C(=O)Nc3c(Br)cc(Br)cc32)cc(C(C)(C)C)c1OCc1ccccc1 [10733/A05]
Biochem EGFR %Inhibition: 55.2%

CNS(=O)(=O)c1ccc2c(c1)C(=Cc1ccc([N+](=O)[O-])o1)C(=O)N2 [10718/D11]
Biochem EGFR %Inhibition: 5.4%

COc1c(C(C)C)cc(C=C2C(=O)Nc3ccc(CCCl)cc32)cc1C(C)C [10732/G03]
Biochem EGFR %Inhibition: -20.0%

COc1c(C(C)C)cc(C=C2C(=O)Nc3ccc(S(=O)(=O)Nc4ccc(C(F)(F)F)cc4)cc32)cc1C(C)C [10732/E03]
Biochem EGFR %Inhibition: -1.6%

O=C1Nc2c(Br)cc(Br)cc2C1=Cc1cc(Br)ccc1O [10733/A09]
Biochem EGFR %Inhibition: 25.9%
